Numbers after ± are expanded uncertainties.
Tests used:
[1] = refractive index (Na D-line) (dimensionless); conditions: 298.15 K; 101.33 kPa; Liquid; Standard Abbe refractometry
[2] = 298.15 K; 101.33 kPa; Liquid; Vibrating tube method

SMILES	refractive index [1]	mass density [2] [kg/m3]
Cc1ccccc1C [1,2-dimethylbenzene]	1.49466 ± 0.00072	859.54 ± 0.14
Cc1cccc(C)c1 [1,3-dimethylbenzene]	1.49464 ± 0.00072	859.95 ± 0.14
Cc1ccc(C)cc1 [1,4-dimethylbenzene]	1.4958 ± 0.0007	856.71 ± 0.14
CCCCCCCC [octane]	1.3951 ± 0.0007	698.61 ± 0.17
